Measurements taken from ChEMBL document CHEMBL1201862, “PubChem BioAssay data set” (2004).
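All cell lines were grown in 96-well plates and treated with compound for 48 hours. GI50 marks 50% less growth.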 The source made the active and inactive calls. Cut-off read from the data, not from the text of the source: active = GI50 up to about 1.1 µM and inactive = higher.

How the values were obtained:
Assay in all cases: NCI-60 cell line screen, 48 h
CAKI-1 = tested on: CAKI-1
CCRF-CEM = tested on: CCRF-CEM
COLO 205 = tested on: COLO 205
EKVX = tested on: EKVX
HCC 2998 = tested on: HCC 2998
HCT-15 = tested on: HCT-15
Hs-578T = tested on: Hs-578T
MDA-MB-435 = tested on: MDA-MB-435
MOLT-4 = tested on: MOLT-4
NCI-H226 = tested on: NCI-H226
NCI-H23 = tested on: NCI-H23
NCI-H460 = tested on: NCI-H460
OVCAR-5 = tested on: OVCAR-5
SK-MEL-28 = tested on: SK-MEL-28
SNB-75 = tested on: SNB-75
SW-620 = tested on: SW-620
T47D = tested on: T47D
TK-10 = tested on: TK-10
U-251 = tested on: U-251
UACC-257 = tested on: UACC-257

Row | Structure (SMILES) | GI50 (CAKI-1) | GI50 (CCRF-CEM) | GI50 (COLO 205) | GI50 (EKVX) | GI50 (HCC 2998) | GI50 (HCT-15) [µM] | GI50 (Hs-578T) | GI50 (MDA-MB-435) | GI50 (MOLT-4) | GI50 (NCI-H226) | GI50 (NCI-H23) | GI50 (NCI-H460) | GI50 (OVCAR-5) | GI50 (SK-MEL-28) | GI50 (SNB-75) | GI50 (SW-620) | GI50 (T47D) | GI50 (TK-10) | GI50 (U-251) | GI50 (UACC-257)
1 | CCCCOC(=O)C1CN2C=CC=NC2=NC1(C(F)(F)F)C(F)(F)F (stereo not given) | > 100 µM (inactive) | > 100 µM (inactive) | > 100 µM (inactive) | 72.6 µM (inactive) | > 100 µM (inactive) | > 100 | > 100 µM (inactive) | > 100 µM (inactive) | > 100 µM (inactive) | > 100 µM (inactive) | > 100 µM (inactive) | > 100 µM (inactive) | > 100 µM (inactive) | > 100 µM (inactive) | > 100 µM (inactive) | > 100 µM (inactive) | > 100 µM (inactive) | > 100 µM (inactive) | > 100 µM (inactive) | > 100 µM (inactive)
2 | COc1ccc(N2C(=O)C3c4[nH]c5ccc(OC)cc5c4C4CCC(c5ccccc5)CC4C3C2=O)cc1 (stereo not given) | 14.6 µM (inactive) | 2.27 µM (inactive) | 6.19 µM (inactive) | 9.08 µM (inactive) | 8.69 µM (inactive) | 31.3 | 1.6 µM (inactive) | 16.4 µM (inactive) | 4.32 µM (inactive) | 28.7 µM (inactive) | 17.5 µM (inactive) | 4.93 µM (inactive) | 20.6 µM (inactive) | 14.1 µM (inactive) | 3.15 µM (inactive) | 3.82 µM (inactive) | 20.1 µM (inactive) | 21.8 µM (inactive) | 8.99 µM (inactive) | 17.3 µM (inactive)
3 | CC(=O)OC1CC(O)CC2=CCC3C4CCC(C(C)(O)C(O)CC5COC(=O)C5C)C4(C)CCC3C21C (stereo not given) | 8.43 µM (inactive) | 16.5 µM (inactive) | > 25 µM (inactive) | 8.89 µM (inactive) | > 25 µM (inactive) | > 25 | 10.3 µM (inactive) | > 25 µM (inactive) | > 25 µM (inactive) | 12.1 µM (inactive) | > 25 µM (inactive) | > 25 µM (inactive) | > 25 µM (inactive) | 24.5 µM (inactive) | 7.08 µM (inactive) | > 25 µM (inactive) | > 25 µM (inactive) | > 25 µM (inactive) | > 25 µM (inactive) | > 25 µM (inactive)
4 | O=C(Nc1noc(-c2ccccc2)n1)c1ccccc1CNc1noc(-c2ccccc2)n1 | > 100 µM (inactive) | > 100 µM (inactive) | > 100 µM (inactive) | 76.7 µM (inactive) | > 100 µM (inactive) | > 100 | > 100 µM (inactive) | > 100 µM (inactive) | > 100 µM (inactive) | > 100 µM (inactive) | > 100 µM (inactive) | > 100 µM (inactive) | > 100 µM (inactive) | > 100 µM (inactive) | > 100 µM (inactive) | > 100 µM (inactive) | > 100 µM (inactive) | > 100 µM (inactive) | > 100 µM (inactive) | > 100 µM (inactive)
5 | CCC(=O)c1ccc2[nH]c3c(C)c4c(O)cc(C)nc4c(C)c3c2c1 | > 100 µM (inactive) | > 100 µM (inactive) | > 100 µM (inactive) | > 100 µM (inactive) | > 100 µM (inactive) | > 100 | > 100 µM (inactive) | > 100 µM (inactive) | > 100 µM (inactive) | > 100 µM (inactive) | > 100 µM (inactive) | > 100 µM (inactive) | > 100 µM (inactive) | > 100 µM (inactive) | > 100 µM (inactive) | > 100 µM (inactive) | > 100 µM (inactive) | 63.2 µM (inactive) | 42.6 µM (inactive) | > 100 µM (inactive)
6 | O=CNc1ccc2c(c1)C(=O)c1ccccc1-2 | > 100 µM (inactive) | 41.2 µM (inactive) | 67.5 µM (inactive) | 4.69 µM (inactive) | > 100 µM (inactive) | 59.7 | 24.1 µM (inactive) | > 100 µM (inactive) | 44.7 µM (inactive) | > 100 µM (inactive) | > 100 µM (inactive) | 46 µM (inactive) | > 100 µM (inactive) | > 100 µM (inactive) | 86.3 µM (inactive) | 49.3 µM (inactive) | 76.9 µM (inactive) | > 100 µM (inactive) | 65 µM (inactive) | > 100 µM (inactive)
7 | COCC(=O)OC1CCn2c1nc1c2C(=O)C(C)=C(NC(C)=O)C1=O (stereo not given) | 16.2 µM (inactive) | 0.857 µM (active) | 15.5 µM (inactive) | 7.6 µM (inactive) | 13 µM (inactive) | 14.4 | 4.06 µM (inactive) | 1.89 µM (inactive) | 1.14 µM (inactive) | 11.1 µM (inactive) | 7.85 µM (inactive) | 17.5 µM (inactive) | 8.57 µM (inactive) | 15.1 µM (inactive) | 5.42 µM (inactive) | 7.4 µM (inactive) | 0.787 µM (active) | 18.2 µM (inactive) | 6.05 µM (inactive) | 3.97 µM (inactive)
